# Source: patent publication US20120015898A1, “COMPOUNDS AND METHODS FOR TREATMENT OF SICKLE CELL DISEASE OR COMPLICATIONS ASSOCIATED THEREWITH” (GlycoMimetics, Inc., priority 2007, published 2012)
# Tests used:
# [1] = tested on: sickle cell mice; experiment: TNFα-induced vaso-occlusive crisis in sickle cell mice, intravital microscopy of cremaster venules (prevention protocol); type: in vivo
# Source text: FIG. 6 is a schematic of the protocol for inducing a vaso-occlusive crisis (VOC) in sickle cell-affected mice and recording blood flow.
# (§1) An animal model of sickle cell disease exists in fully chimeric mice constructed by bone marrow transplantation and expressing >97% human globin containing the β^S mutation. A vaso-occlusive crisis is induced by stimulation with TNFα and is monitored by observing and recording blood flow by intravital microscopy of the venules in the cremaster muscle.
# (§2) Each mouse is prepared by cannulating the right carotid artery and by undergoing a tracheotomy to facilitate ventilation under anesthesia. Twenty (20) minutes prior to stimulation with TNFα, the cremaster muscle is gently exteriorized and the venules are set on a microscope stage for observation and recording of blood flow. Just prior to administration of TNFα and again prior to the recording of the venules (90 min later), Compound # 2 is administered through the cannulated carotid artery and data is obtained by monitoring blood flow and recording time of death.
# [2] = tested on: sickle cell mice; experiment: Delayed treatment of VOC in sickle cell mice (treatment protocol); type: in vivo; conditions: control PBS
# Procedure: FIG. 9 is a schematic of a sickle cell mouse model for use with both prevention and treatment protocols. The black arrows underneath Comp. #2 are for the prevention protocol. The gray arrow underneath Comp. #2 is for the treatment protocol. Recording is started at the 90 minute mark for the prevention protocol. Recording is started at the 120 minute mark for the treatment protocol.
# as §1, §2
compound,measurement,setting,value
CC1OC(OC2C(NC(=O)c3cc(O)nc(O)n3)CC(C(=O)NCCNC(=O)COCCOCC(=O)Nc3cccc(CNc4cc(S(=O)(=O)O)cc5cc(S(=O)(=O)O)cc(S(=O)(=O)O)c45)c3)CC2OC2OC(CO)C(O)C(O[C@@H](CC3CCCCC3)C(=O)O)C2OC(=O)c2ccccc2)C(O)C(O)C1O (some centres unmarked) [Compound #2],blood flow in the sickle cell mouse,"[1]; after stimulation with TNFα, compound given through cannulated carotid artery just prior to TNFα and again 90 min later, FIG. 7",restoring blood flow to a velocity observed in normal mice
same,adhesion of sickle red blood cells (RBC) to leukocytes,"[1]; sickle cell mice, TNFα-induced vaso-occlusive crisis, FIG. 8",significant inhibition of adhesion
same,adherent white blood cells (WBCs),"[2]; WBCs adherent to vascular endothelium, FIG. 11",significant reduction in the number of WBCs adherent to the vascular endothelium
same,blood flow rate,[2]; FIG. 10,normalizes the rate of blood flow
same,interactions of sickle red blood cells (RBCS) with leukocytes,[2]; FIG. 12,dramatically reduces interactions of sickle RBCs with leukocytes
